Laboratory results from patent US11324821B2, “Triterpene saponin analogues” (ADJUVANCE TECHNOLOGIES, INC., priority 2017, dated 2022).
“And” between values parts separate entries of the source, which are not always exact repeats. Identical values can stand only once.

Assays:
Format in all cases: in vivo, mice
[1] = test system: GB208_1; experiment: INFγ ELISPOT, total splenocytes, responses to GB208_1; conditions: re-stimulation GB208_1 10 μg/ml, per mouse
Experimental: (§1) The impact of synthetic TQL-1055 (Compound I-4) on CD4 and CD8 T cell responses to peptides was tested in mice as a single adjuvant and in combination with Genocea Biosciences GEN-AS2 adjuvant and sGenocea Biosciences GEN-AS3 adjuvant according to the plan in the table below. The GEN-AS2 and GEN-AS3 adjuvant are TLR agonist-based adjuvant systems. Specific peptides tested include Genocea synthetic long peptides (SLPs) GB208_1, GB208_4, GB208_8, which are tumor-specific T cell antigens identified by neo-antigen screening, however the results are expected to replicate to other types of peptides. Combinations including an adjuvant composition with the SLPs were administered to mice via s.c. scruff according to the plan below. Injections were administered to groups according to the plan in the table below. Responses in mice were measured seven (7) or fourteen (14) days after the final injection.
(§2) T cell responses were measured by the following ELISPOT analyses: • 1. Total splenocytes: • a. Combined responses to GB208_1, _4, _8; re-stimulation with overlapping peptides (OLPs) at 10 μg/ml; • b. Responses to GB208_1; re-stimulation GB208_1 at 10 μg/ml; • c. Responses to GB208_4; re-stimulation GB208_4 at 10 μg/ml; • d. Responses to GB208_8; re-stimulation GB208_8 at 10 μg/ml; • 2. CD4 enriched: combined responses to GB208_1, _4, _8; re-stimulation with overlapping peptides at 20 μg/ml; and • 3. CD8 enriched: combined responses to GB208_1, _4, _8; re-stimulation with overlapping peptides at 20 μg/ml. Specific resulting data is shown in FIGS. 2-8 and in the tables below.
(§3) The values in Tables 3a-f results are spot forming units per 800,000 cells. A value of 2000 was used if spots exceeded the upper limit of detection. All groups had n=5, except groups 1, 2, and 3, which had four mice in each group.

[2] = test system: GB208_4; experiment: INFγ ELISPOT, total splenocytes, responses to GB208_4; conditions: re-stimulation GB208_4 10 μg/ml, per mouse
Experimental: as §1, §2, §3

[3] = test system: GB208_8; experiment: INFγ ELISPOT, total splenocytes, responses to GB208_8; conditions: re-stimulation GB208_8 10 μg/ml, per mouse
Experimental: as §1, §2, §3

[4] = test system: GB208_1, _4, _8; experiment: INFγ ELISPOT, total splenocytes, combined responses to GB208_1, _4, _8 (overlapping peptides); conditions: re-stimulation OLPs 10 μg/ml, per mouse
Experimental: as §1, §2, §3

[5] = test system: CD4 enriched; experiment: ELISPOT, CD4 enriched cells, combined responses to GB208_1, _4, _8; conditions: re-stimulation overlapping peptides 20 μg/ml
Experimental: as §1, §2
(§4) The values in Tables 3g-h results are spot forming units per 500,000 cells. A value of 2000 was used if spots exceeded the upper limit of detection.

[6] = test system: CD8 enriched; experiment: ELISPOT, CD8 enriched cells, combined responses to GB208_1, _4, _8; conditions: re-stimulation overlapping peptides 20 μg/ml
Experimental: as §1, §2, §4

[7] = test system: GB208_1, _4, _8; experiment: Endpoint titer, total IgG response to GB208_1, _4, _8; conditions: FIG. 7, total IgG endpoint titer
Experimental: FIG. 7 depicts data showing enpoint titer data for total IgG response to GB208_1, _4, _8 for each group tested in Example 2.
as §1

[8] = Group 2: no antigen, 50 μg TQL-1055, days 0, 7
[9] = Group 5: 150 μg SLPs + 10 μg TQL-1055, days 0, 7
[10] = Group 6: 150 μg SLPs + 25 μg TQL-1055, days 0, 7
[11] = Group 7: 150 μg SLPs + 50 μg TQL-1055, days 0, 7
[12] = Group 8: 150 μg SLPs + 100 μg TQL-1055, days 0, 7
[13] = Group 11: 150 μg SLPs + 50 μg TQL-1055, days 0, 14

How did the “SLP1-specific INFγ responses in splenocytes” value (from here on “SLP1-specific INFγ responses”) [1, 8] turn out when CC1O[C@@H](OC2C(O)[C@@H](NC(=O)CCCCCCCCCCC(=O)O)C(CO)O[C@H]2OC(=O)[C@]23CCC(C)(C)CC2C2=CCC4C5(C)CC[C@H](O)C(C)(C=O)C5CCC4(C)[C@]2(C)CC3O)C(O)C(O)[C@H]1O[C@@H]1OC[C@@H](O)C(O)C1O (stereo partly shown) [TQL-1055] was run?
The value was 0 spot forming units per 800,000 cells.

What about the “SLP1-specific INFγ responses” value [1, 9] of the same molecule?
Its value is 0 spot forming units per 800,000 cells (2×) and 4 spot forming units per 800,000 cells and 11 spot forming units per 800,000 cells and 5 spot forming units per 800,000 cells.

What about the “SLP1-specific INFγ responses” value [1, 10] of the same molecule?
The value was 3 spot forming units per 800,000 cells and 4 spot forming units per 800,000 cells and 25 spot forming units per 800,000 cells and 12 spot forming units per 800,000 cells and 30 spot forming units per 800,000 cells.

And the “SLP1-specific INFγ responses” value [1, 11]?
The value was 3 spot forming units per 800,000 cells and 13 spot forming units per 800,000 cells and 4 spot forming units per 800,000 cells and 18 spot forming units per 800,000 cells and 25 spot forming units per 800,000 cells.

And the “SLP1-specific INFγ responses” value [1, 12]?
The value was 0 spot forming units per 800,000 cells and 5 spot forming units per 800,000 cells and 7 spot forming units per 800,000 cells and 29 spot forming units per 800,000 cells and 3 spot forming units per 800,000 cells.

What about the “SLP1-specific INFγ responses” value [1, 13] of the same molecule?
Its value is 3 spot forming units per 800,000 cells (2×) and 20 spot forming units per 800,000 cells and 94 spot forming units per 800,000 cells and 4 spot forming units per 800,000 cells.

What about the “SLP4-specific INFγ responses in splenocytes” value (shortened to “SLP4-specific INFγ responses”) [2, 8] of the same molecule?
The value was 0 spot forming units per 800,000 cells.

What about the “SLP4-specific INFγ responses” value [2, 9] of the same molecule?
The value was 31 spot forming units per 800,000 cells and 135 spot forming units per 800,000 cells and 21 spot forming units per 800,000 cells and 183 spot forming units per 800,000 cells and 72 spot forming units per 800,000 cells.

And the “SLP4-specific INFγ responses” value [2, 10]?
The value was 102 spot forming units per 800,000 cells and 70 spot forming units per 800,000 cells and 431 spot forming units per 800,000 cells and 22 spot forming units per 800,000 cells and 169 spot forming units per 800,000 cells.

And the “SLP4-specific INFγ responses” value [2, 11]?
Its value is 68 spot forming units per 800,000 cells and 23 spot forming units per 800,000 cells and 142 spot forming units per 800,000 cells and 93 spot forming units per 800,000 cells and 42 spot forming units per 800,000 cells.

And the “SLP4-specific INFγ responses” value [2, 12]?
Its value is 30 spot forming units per 800,000 cells and 37 spot forming units per 800,000 cells and 19 spot forming units per 800,000 cells and 76 spot forming units per 800,000 cells and 78 spot forming units per 800,000 cells.

What about the “SLP4-specific INFγ responses” value [2, 13] of the same molecule?
Its value is 43 spot forming units per 800,000 cells and 96 spot forming units per 800,000 cells and 31 spot forming units per 800,000 cells and 258 spot forming units per 800,000 cells and 79 spot forming units per 800,000 cells.

And the “SLP8-specific INFγ responses in splenocytes” value (“SLP8-specific INFγ responses” below) [3, 8]?
Its value is 0 spot forming units per 800,000 cells (3×) and 2 spot forming units per 800,000 cells.

What about the “SLP8-specific INFγ responses” value [3, 9] of the same molecule?
The value was 0 spot forming units per 800,000 cells (2×) and 13 spot forming units per 800,000 cells and 15 spot forming units per 800,000 cells and 16 spot forming units per 800,000 cells.

What about the “SLP8-specific INFγ responses” value [3, 10] of the same molecule?
Its value is 21 spot forming units per 800,000 cells (2×) and 5 spot forming units per 800,000 cells and 53 spot forming units per 800,000 cells and 3 spot forming units per 800,000 cells.

What about the “SLP8-specific INFγ responses” value [3, 11] of the same molecule?
The value was 29 spot forming units per 800,000 cells and 5 spot forming units per 800,000 cells and 55 spot forming units per 800,000 cells and 286 spot forming units per 800,000 cells and 20 spot forming units per 800,000 cells.

And the “SLP8-specific INFγ responses” value [3, 12]?
The value was 15 spot forming units per 800,000 cells and 0 spot forming units per 800,000 cells and 2 spot forming units per 800,000 cells and 29 spot forming units per 800,000 cells and 4 spot forming units per 800,000 cells.

And the “SLP8-specific INFγ responses” value [3, 13]?
The value was 59 spot forming units per 800,000 cells and 33 spot forming units per 800,000 cells and 93 spot forming units per 800,000 cells and 164 spot forming units per 800,000 cells and 136 spot forming units per 800,000 cells.

And the “INFγ responses in splenocytes to SLPs 1, 4, 8” value (from here on “INFγ responses … 4, 8”) [4, 8]?
Its value is 0.5 spot forming units per 800,000 cells (2×) and 2.5 spot forming units per 800,000 cells and 2 spot forming units per 800,000 cells.

What about the “INFγ responses … 4, 8” value [4, 9] of the same molecule?
Its value is 12.5 spot forming units per 800,000 cells and 20 spot forming units per 800,000 cells and 11 spot forming units per 800,000 cells and 115 spot forming units per 800,000 cells and 53 spot forming units per 800,000 cells.

What about the “INFγ responses … 4, 8” value [4, 10] of the same molecule?
Its value is 104.5 spot forming units per 800,000 cells and 39 spot forming units per 800,000 cells and 338 spot forming units per 800,000 cells and 12.5 spot forming units per 800,000 cells and 167.5 spot forming units per 800,000 cells.

And the “INFγ responses … 4, 8” value [4, 11]?
Its value is 56 spot forming units per 800,000 cells and 32 spot forming units per 800,000 cells and 138 spot forming units per 800,000 cells and 139 spot forming units per 800,000 cells and 59.5 spot forming units per 800,000 cells.

And the “INFγ responses … 4, 8” value [4, 12]?
The value was 42.5 spot forming units per 800,000 cells and 22 spot forming units per 800,000 cells and 17 spot forming units per 800,000 cells and 74.5 spot forming units per 800,000 cells and 73 spot forming units per 800,000 cells.

And the “INFγ responses … 4, 8” value [4, 13]?
The value was 70 spot forming units per 800,000 cells and 85 spot forming units per 800,000 cells and 32.5 spot forming units per 800,000 cells and 319.5 spot forming units per 800,000 cells and 112 spot forming units per 800,000 cells.

What about the “CD4 Responses, OLP pool SLP 1, 4, 8” value [5, 8] of the same molecule?
Its value is 0 spot forming units per 500,000 cells.

What about the “CD4 Responses, OLP pool SLP 1, 4, 8” value [5, 9] of the same molecule?
The value was 48.5 spot forming units per 500,000 cells.

What about the “CD4 Responses, OLP pool SLP 1, 4, 8” value [5, 10] of the same molecule?
The value was 149.5 spot forming units per 500,000 cells.

And the “CD4 Responses, OLP pool SLP 1, 4, 8” value [5, 11]?
The value was 88.5 spot forming units per 500,000 cells.

And the “CD4 Responses, OLP pool SLP 1, 4, 8” value [5, 12]?
The value was 28.5 spot forming units per 500,000 cells.

What about the “CD4 Responses, OLP pool SLP 1, 4, 8” value [5, 13] of the same molecule?
Its value is 79 spot forming units per 500,000 cells.

What about the “CD8 Responses, OLP pool SLP 1, 4, 8” value [6, 8] of the same molecule?
Its value is 2.5 spot forming units per 500,000 cells.

And the “CD8 Responses, OLP pool SLP 1, 4, 8” value [6, 9]?
The value was 6.5 spot forming units per 500,000 cells.

What about the “CD8 Responses, OLP pool SLP 1, 4, 8” value [6, 10] of the same molecule?
The value was 5 spot forming units per 500,000 cells.

What about the “CD8 Responses, OLP pool SLP 1, 4, 8” value [6, 11] of the same molecule?
Its value is 5.5 spot forming units per 500,000 cells.

And the “CD8 Responses, OLP pool SLP 1, 4, 8” value [6, 12]?
Its value is 6.5 spot forming units per 500,000 cells.

What about the “CD8 Responses, OLP pool SLP 1, 4, 8” value [6, 13] of the same molecule?
The value was 3.5 spot forming units per 500,000 cells.

And the “antibody response for antibodies specific to GB208_1, _4, and _8 compared with GEN-AS3” value [7]?
Its value is “in line with or better than GEN-AS3”.
